Measurements reported in the supplement of paper PMC10307832.

Tests used:
Assay in all cases: relative viability (nuclei count vs DMSO), 5 days (fraction); higher = more cells survive
Idelalisib + Linsitinib = compound: CC[C@H](Nc1ncnc2[nH]cnc12)c1nc2cccc(F)c2c(=O)n1-c1ccccc1 [Idelalisib] + C[C@]1(O)C[C@@H](c2nc(-c3ccc4ccc(-c5ccccc5)nc4c3)c3c(N)nccn32)C1 [Linsitinib] (partner 1 µM)
Summary of the method: (§1)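 Nuclei were stained with Hoechst during a one-step fixation (final 0.05% Triton X-100, 1% formaldehyde, 1 ug/ml Hoechst) carried out 5 days after dosing, then counted on 4× images. The cells, lung cancer lines in 1536-well plates, had been dosed by pin tool the day after seeding with one drug alone or a fixed anchor-drug dose plus five library-drug doses (not always all listed) in √10 steps. Relative viability is the nuclei count in treated wells divided by that in vehicle wells, and each value is the median of duplicate plates.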

Idelalisib + Tozasertib = compound: CC[C@H](Nc1ncnc2[nH]cnc12)c1nc2cccc(F)c2c(=O)n1-c1ccccc1 [Idelalisib] + Cc1cc(Nc2cc(N3CCN(C)CC3)nc(Sc3ccc(NC(=O)C4CC4)cc3)n2)n[nH]1 [Tozasertib] (partner 0.1 µM)
Summary of the method: as §1

Pemetrexed + Olaparib = compound: Nc1nc2[nH]cc(CCc3ccc(C(=O)N[C@@H](CCC(=O)O)C(=O)O)cc3)c2c(=O)[nH]1 [Pemetrexed] + O=C(c1cc(Cc2n[nH]c(=O)c3ccccc23)ccc1F)N1CCN(C(=O)C2CC2)CC1 [Olaparib] (partner 8 µM)
Summary of the method: as §1

Pemetrexed + Bortezomib = compound: Nc1nc2[nH]cc(CCc3ccc(C(=O)N[C@@H](CCC(=O)O)C(=O)O)cc3)c2c(=O)[nH]1 [Pemetrexed] + CC(C)C[C@H](NC(=O)[C@H](Cc1ccccc1)NC(=O)c1cnccn1)B(O)O [Bortezomib] (partner 0.002 µM)
Summary of the method: as §1

| Cell Line | relative viability (Idelalisib + Linsitinib; first compound 0.04 µM) | relative viability (Idelalisib + Linsitinib; first compound 0.1265 µM) | relative viability (Idelalisib + Linsitinib; first compound 0.4 µM) | relative viability (Idelalisib + Linsitinib; first compound 1.265 µM) | relative viability (Idelalisib + Linsitinib; first compound 4 µM) | relative viability (Idelalisib + Tozasertib; first compound 0.04 µM) | relative viability (Idelalisib + Tozasertib; first compound 0.1265 µM) | relative viability (Idelalisib + Tozasertib; first compound 0.4 µM) | relative viability (Idelalisib + Tozasertib; first compound 1.265 µM) | relative viability (Idelalisib + Tozasertib; first compound 4 µM) | relative viability (Pemetrexed + Olaparib; first compound 0.002 µM) | relative viability (Pemetrexed + Olaparib; first compound 0.006325 µM) | relative viability (Pemetrexed + Olaparib; first compound 0.02 µM) | relative viability (Pemetrexed + Olaparib; first compound 0.06325 µM) | relative viability (Pemetrexed + Olaparib; first compound 0.2 µM) | relative viability (Pemetrexed + Bortezomib; first compound 0.002 µM) | relative viability (Pemetrexed + Bortezomib; first compound 0.006325 µM) | relative viability (Pemetrexed + Bortezomib; first compound 0.02 µM) | relative viability (Pemetrexed + Bortezomib; first compound 0.06325 µM) | relative viability (Pemetrexed + Bortezomib; first compound 0.2 µM) |
| --- | --- | --- | --- | --- | --- | --- | --- | --- | --- | --- | --- | --- | --- | --- | --- | --- | --- | --- | --- | --- |
| NCI-H2023 | 0.662 | 0.556 | 0.515 | 0.547 | 0.273 | 0.355 | 0.284 | 0.363 | 0.321 | 0.253 | 0.431 | 0.463 | 0.456 | 0.36 | 0.158 | 0.519 | 0.912 | 1.04 | 0.815 | 0.304 |
| EPLC-272H | 1.49 | 0.996 | 0.977 | 1.13 | 0.976 | 0.212 | 0.227 | 0.242 | 0.212 | 0.222 | 0.592 | 0.835 | 1.01 | 0.564 | 0.271 | 0.682 | 0.888 | 1.16 | 0.848 | 0.926 |
| SK-LU-1 | 1.17 | 1.15 | 0.916 | 1.02 | 0.973 | 0.294 | 0.313 | 0.337 | 0.32 | 0.327 | 0.405 | 0.5 | 0.58 | 0.51 | 0.455 | 0.949 | 1.21 | 1.3 | 1.08 | 1.31 |
| ABC-1 | 0.765 | 0.698 | 0.827 | 0.651 | 0.689 | 0.146 | 0.154 | 0.186 | 0.219 | 0.196 | 0.839 | 0.867 | 0.985 | 0.875 | 0.865 | 0.244 | 0.297 | 0.322 | 0.214 | 0.292 |
| NCI-H2085 | 0.912 | 1.03 | 0.8 | 0.579 | 0.437 | 0.915 | 0.779 | 0.8 | 0.641 | 0.692 | 0.755 | 0.74 | 0.802 | 0.806 | 0.789 | 1.01 | 1.19 | 1.04 | 1.09 | 1.05 |
| NCI-H2087 | 0.937 | 1.04 | 1.09 | 1.06 | 0.728 | 0.249 | 0.272 | 0.212 | 0.216 | 0.235 | 0.595 | 0.585 | 0.626 | 0.534 | 0.539 | 0.834 | 0.639 | 0.919 | 1.04 | 0.523 |
| NCI-H322M | 0.971 | 0.924 | 0.801 | 0.642 | 0.692 | 0.516 | 0.532 | 0.466 | 0.44 | 0.453 | 0.682 | 0.763 | 0.752 | 0.84 | 0.736 | 1.32 | 1.06 | 1.22 | 1.29 | 1.19 |
| NCI-H1734 | 0.944 | 0.814 | 0.765 | 0.791 | 0.597 | 0.264 | 0.246 | 0.253 | 0.254 | 0.246 | 0.576 | 0.615 | 0.741 | 0.619 | 0.601 | 0.911 | 1.01 | 0.929 | 0.944 | 0.705 |
| NCI-H2228 | 0.66 | 0.68 | 0.586 | 0.768 | 0.511 | 0.292 | 0.216 | 0.223 | 0.271 | 0.239 | 0.657 | 0.478 | 0.695 | 0.329 | 0.273 | 0.934 | 0.918 | 1.07 | 0.754 | 0.339 |
| EKVX | 0.832 | 0.97 | 0.849 | 0.724 | 0.758 | 0.411 | 0.419 | 0.336 | 0.342 | 0.317 | 0.794 | 0.796 | 0.884 | 0.883 | 0.499 | 0.939 | 0.946 | 0.971 | 0.979 | 0.553 |
| NCI-H596 | 1.07 | 1.06 | 0.899 | 1.19 | 1.03 | 0.818 | 1.01 | 0.73 | 0.855 | 0.815 | 0.747 | 0.73 | 0.761 | 0.668 | 0.514 | 1.22 | 0.869 | 1.14 | 0.851 | 0.71 |
| NCI-H1975 | 0.98 | 1.03 | 0.882 | 0.937 | 0.772 | 0.7 | 0.794 | 0.671 | 0.718 | 0.565 | 0.645 | 0.748 | 0.765 | 0.677 | 0.323 |  | 0.427 | 0.386 | 0.309 | 0.213 |
| NCI-H1666 | 0.881 | 0.873 | 0.73 | 0.629 | 0.552 | 0.662 | 0.594 | 0.78 | 0.639 | 0.57 | 0.765 | 0.785 | 0.787 | 0.728 | 0.694 | 0.682 | 0.752 | 0.875 | 0.766 | 0.421 |
| PC-3 [JPC-3] | 0.972 | 0.976 | 0.986 | 0.95 | 0.893 | 0.966 | 0.913 | 0.853 | 0.901 | 0.715 | 1.03 | 1.18 | 1.19 | 1.14 | 1.08 | 0.66 | 0.74 | 0.925 | 0.854 | 0.772 |
| NCI-H1755 | 1.01 | 0.959 | 0.947 | 0.907 | 0.786 | 0.541 | 0.616 | 0.483 | 0.488 | 0.489 | 0.777 | 0.857 | 0.875 | 0.89 | 0.781 | 0.819 | 0.952 | 1.04 | 1.01 | 0.867 |
| RERF-LC-KJ | 0.973 | 0.863 | 0.869 | 0.789 | 0.908 | 0.539 | 0.502 | 0.47 | 0.474 | 0.449 | 0.956 | 0.843 | 0.973 | 0.865 | 0.612 | 1.13 | 1.06 | 1.13 | 1.04 | 0.82 |
| NCI-H647 | 0.882 | 1.19 | 0.93 | 0.805 | 0.976 | 0.313 | 0.394 |  | 0.0094 | 0.109 | 0.585 | 0.67 | 0.765 | 0.465 | 0.163 |  | 1.07 | 1.35 | 0.703 | 0.295 |
| BEN | 0.908 | 0.935 | 0.706 | 0.931 | 0.696 | 0.479 | 0.562 | 0.542 | 0.488 | 0.413 | 1.07 | 1.01 | 1.05 | 0.97 | 0.891 | 0.838 | 0.847 | 1.01 | 0.855 | 0.688 |
| 201T | 1.09 | 1.02 | 0.937 | 0.933 | 0.926 | 1.07 | 1.01 | 0.785 | 0.947 | 0.667 | 0.791 | 0.85 | 0.841 | 0.878 | 0.839 | 1.05 | 1.11 | 1.12 | 1.09 | 1.03 |
| LC-2-ad | 0.966 | 0.848 | 0.805 | 0.75 | 0.719 | 0.44 | 0.455 | 0.374 | 0.397 | 0.457 | 0.712 | 0.711 | 0.683 | 0.612 | 0.312 | 0.981 | 1.01 | 1.02 | 0.215 | 0.148 |
| LCLC-97TM1 | 0.209 | 0.184 |  | 0.175 | 0.156 | 0.299 | 0.172 | 0.201 | 0.207 | 0.207 | 0.442 | 0.327 | 0.457 | 0.426 | 0.411 | 0.523 | 1.08 | 0.679 | 0.32 | 0.131 |
| NCI-H1915 | 1.19 | 1.15 | 1.04 | 1.17 | 1.07 | 0.55 | 0.406 | 0.374 | 0.407 | 0.402 | 0.243 | 0.277 | 0.274 | 0.238 | 0.274 | 0.937 | 1.02 | 1.04 | 0.965 | 0.943 |
| NCI-H3122 | 0.953 | 0.952 | 1.03 | 0.935 | 0.894 | 0.377 | 0.372 | 0.41 | 0.4 | 0.399 | 0.592 | 0.636 | 0.678 | 0.567 | 0.513 | 1.02 | 1.02 | 0.899 | 0.99 | 0.877 |
| NCI-H1993 | 0.824 | 0.673 | 0.662 | 0.756 | 0.66 | 0.628 | 0.54 | 0.519 | 0.583 | 0.574 | 0.885 | 1.02 | 1.21 | 1.06 | 0.798 | 1.04 | 1.08 | 1.22 | 0.99 | 0.695 |
| NCI-H2405 | 1.08 | 0.851 | 0.733 | 0.736 | 0.69 | 0.841 | 0.864 | 0.671 | 0.762 | 0.672 | 0.793 | 0.821 | 0.885 | 0.846 | 0.862 | 0.983 | 0.974 | 1.05 | 0.986 | 0.96 |
| NCI-H661 | 0.588 | 0.551 | 0.373 | 0.389 | 0.458 | 0.414 | 0.358 | 0.391 | 0.358 | 0.408 | 0.741 | 0.743 | 0.71 | 0.759 | 0.679 | 0.945 | 0.88 | 0.891 | 0.727 | 0.648 |
